Source: US7728034B2, “Treating neurological disorders using selective antagonists of persistent sodium current” (Allergan, Inc., priority 2003, dated 2010)

Experiments:
[1] = molecular target: T1, HEK cells expressing Nav1.3 (HEK-Nav1.3) (Homo sapiens, UniProt Q9NY46); assay: High-throughput VIPR FRET assay of persistent sodium current-dependent depolarization with K+ counter-screen; assay type: cell-based; details: tetracaine 10 μM, FIG. 2
T1 construct: expressed in transfected cells

[2] = test system: sound-induced seizures in DBA mice; assay: Audiogenic seizure (AGS) model in DBA/2 mice; assay type: in vivo, mouse
Text: This study examined the anti-seizure efficacy of Compound 1 against to reference compounds (Diazepam and Sipatrigine) using the audiogenic mouse model as the test platform.
DBA mice are well established in the literature as a model for audiogenic seizures (AGS). This genetically based model is attractive for testing potential therapeutics in that no treatment protocol is required to create the condition. It is classified as inherited idiopathic epilepsy with no known associated organic disease.
The AGS response in these mice consists of a progressive sequence of behaviors. The latency to onset may vary from 2 to 15 seconds, and is age variant. The initial wild running phase may be divided into an early running phase that varies from 5 tp 20 seconds, followed by a wild running phase that continues for 10-20 seconds. Wild running may progress to tonic/clonic seizures, with loss of righting ability, respiratory suppression and death.
We a scoring system to quantify the effects of the test compounds on the induction of seizures. The behavioral sequence was assigned ascending numerical values (Table 1), and the highest numerical value reached by an animal was that animal's score.
Animals. Male DBA/2 mice were obtained from Jackson Laboratories at 21 day post partum. The animals were acclimated for 1 or 2 days prior to use. Individual animal weights were recorded immediately before treatment. Surviving animals were euthanized within three days of completion of testing.
Seizure Induction. Mice were placed in a test chamber (25 cm i.d.) and exposed to pure tone sound of 11 kHz at a minimum of 116 dB for approximately 60 s until a sequential seizure response, consisting of an early wild running phase, followed by generalized myoclonus and tonic flexion and extension, was obtained. Non-responders were challenged up to five times. Ten animals were obtained by this method for each intended treatment group, with a standard deviation in their maximum score of less than 25%. The acoustic stimulus signal was produced using a signal generator and projected via four high-frequency ceramic speakers mounted on the roof of the chamber. Chamber calibration was performed daily to ensure consistent sound pressure. AGS behaviors were videotaped for later analysis.
I.P. injections: The 10 animals in each treatment group were injected intra-peritoneally with the test drug in a volume of 10 mL/kg of body weight. Injections were 60 min prior to sound challenge.
Data analyses: Data were tested for normal distribution, and (when normal) were analyzed using ANOVA followed by Student's t test. When the data were not normally distributed, analysis was with the Mann-Whitney rank sum test. Significance was set at p<0.05.

[3] = Estimated plasma concentration after i.p. dosing in the AGS study; assay type: in vivo; details: DBA, mouse, intraperitoneal, 1 mg/kg i.p., 60 minutes after dosing
[4] = DBA mice, 60 minutes after dosing, Compound 1 1 mg/kg, references at predicted doses
[5] = DBA/2 mice, i.p. 60 min before sound challenge, scale 1-8, Diazepam 0.15, Sipatrigine 3, Compound 1 1 mg/kg, control 4.8 ± 1.9

T1 sequence (Q9NY46 whole entry): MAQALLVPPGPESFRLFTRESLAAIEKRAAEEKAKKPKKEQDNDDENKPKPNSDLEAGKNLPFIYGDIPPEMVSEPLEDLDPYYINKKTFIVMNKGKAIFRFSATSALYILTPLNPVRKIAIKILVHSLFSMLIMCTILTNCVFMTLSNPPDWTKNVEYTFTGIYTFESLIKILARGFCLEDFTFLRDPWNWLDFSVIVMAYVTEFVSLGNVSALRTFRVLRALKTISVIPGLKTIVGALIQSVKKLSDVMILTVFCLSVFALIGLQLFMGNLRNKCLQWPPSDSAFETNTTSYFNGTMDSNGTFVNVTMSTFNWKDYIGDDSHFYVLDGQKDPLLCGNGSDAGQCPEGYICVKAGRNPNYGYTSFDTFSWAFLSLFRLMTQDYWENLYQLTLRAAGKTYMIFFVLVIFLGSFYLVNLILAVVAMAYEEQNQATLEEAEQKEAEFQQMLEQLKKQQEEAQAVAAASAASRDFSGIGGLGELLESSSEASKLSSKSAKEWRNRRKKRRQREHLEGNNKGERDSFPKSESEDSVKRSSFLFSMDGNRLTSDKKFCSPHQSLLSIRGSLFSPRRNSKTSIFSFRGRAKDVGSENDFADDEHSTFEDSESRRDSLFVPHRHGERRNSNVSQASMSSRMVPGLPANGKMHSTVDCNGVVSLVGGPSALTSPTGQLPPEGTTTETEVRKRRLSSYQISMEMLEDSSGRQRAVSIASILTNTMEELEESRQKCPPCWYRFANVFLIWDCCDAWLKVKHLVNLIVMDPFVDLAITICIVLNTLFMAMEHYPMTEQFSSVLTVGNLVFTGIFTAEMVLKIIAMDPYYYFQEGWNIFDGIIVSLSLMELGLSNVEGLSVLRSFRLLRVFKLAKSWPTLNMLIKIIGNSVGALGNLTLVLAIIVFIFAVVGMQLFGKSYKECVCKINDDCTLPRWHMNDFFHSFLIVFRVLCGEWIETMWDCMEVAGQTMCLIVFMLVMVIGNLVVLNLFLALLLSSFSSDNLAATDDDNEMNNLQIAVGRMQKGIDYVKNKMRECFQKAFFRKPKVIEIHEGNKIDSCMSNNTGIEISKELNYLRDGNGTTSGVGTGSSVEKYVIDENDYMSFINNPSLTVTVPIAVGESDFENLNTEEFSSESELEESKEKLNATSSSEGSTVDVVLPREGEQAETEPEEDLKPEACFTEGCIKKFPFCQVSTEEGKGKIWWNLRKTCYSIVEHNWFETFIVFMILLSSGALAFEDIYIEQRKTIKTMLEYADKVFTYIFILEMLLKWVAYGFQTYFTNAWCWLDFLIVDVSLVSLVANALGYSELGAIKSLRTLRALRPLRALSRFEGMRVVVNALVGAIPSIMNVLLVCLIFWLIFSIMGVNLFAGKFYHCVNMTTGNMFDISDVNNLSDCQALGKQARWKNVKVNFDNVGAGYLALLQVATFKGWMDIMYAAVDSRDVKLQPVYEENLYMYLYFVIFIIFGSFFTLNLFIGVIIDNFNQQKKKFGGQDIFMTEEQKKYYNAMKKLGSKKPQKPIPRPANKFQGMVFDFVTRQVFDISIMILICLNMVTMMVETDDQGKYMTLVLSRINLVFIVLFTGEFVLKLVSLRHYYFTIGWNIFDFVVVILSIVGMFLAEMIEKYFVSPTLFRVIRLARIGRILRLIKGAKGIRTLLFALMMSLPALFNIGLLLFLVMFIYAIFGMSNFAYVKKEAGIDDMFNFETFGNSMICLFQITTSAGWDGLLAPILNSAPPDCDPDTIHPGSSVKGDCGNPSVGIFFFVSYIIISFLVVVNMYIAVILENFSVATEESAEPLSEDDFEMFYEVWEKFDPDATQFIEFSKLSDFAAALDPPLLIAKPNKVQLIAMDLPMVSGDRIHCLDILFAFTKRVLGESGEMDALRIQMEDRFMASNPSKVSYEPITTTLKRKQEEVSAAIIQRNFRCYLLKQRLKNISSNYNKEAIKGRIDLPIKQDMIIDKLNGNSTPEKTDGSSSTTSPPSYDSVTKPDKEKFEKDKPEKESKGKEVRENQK

CCCCNc1ccc(C(=O)OCCN(C)C)cc1 [Tetracaine]
K+-dependent change in Rf/Ri (depolarization, counter-screen) [1]: not
Na+-dependent change in Rf/Ri (depolarization) [1]: inhibited

CN1C(=O)CN=C(c2ccccc2)c2cc(Cl)ccc21 [Diazepam]
Seizure score (AGS), Mean ± s.d. ([2]; mouse, in vivo): 3.1 ± 1.1
behavioral/seizure response to sound-induced seizures ([2]; mouse, in vivo, 1 mg/kg): effective

O=C(NCCCCc1ccccc1)c1cccs1 [Compound 1, thiophene-2-carboxylic acid (4-phenyl-butyl)-amide]
concentration at 60 min [3]: ~5 µM
behavioral/seizure response to sound-induced seizures [2, 4]: significantly reduced
Seizure score (AGS), Mean ± s.d. [2, 5]: 3.2 ± 2.3

CN1CCN(c2ncc(-c3cc(Cl)cc(Cl)c3Cl)c(N)n2)CC1 [Sipatrigine]
behavioral/seizure response to sound-induced seizures [2, 4]: effective
Seizure score (AGS), Mean ± s.d. [2, 5]: 3.3 ± 1.7
